Patent publication US20090104214A1 (priority 2004, published 2009)

Columns and labels:
PA63-LF binding = PA63-LF binding (Bacillus anthracis, UniProt P13423)
[1] = target: anthrax lethal toxin (PA83 and LF) (Bacillus anthracis, UniProt P13423); conditions: rat, in vivo, iv
[2] = system: J774A.1 cells incubated with PA83 and LF; assay type: cell-based, mouse
LF = LF (Bacillus anthracis, UniProt P15917)
PA63 [3] = target: T1, PA63 (Bacillus anthracis, UniProt P13423)
[4] = target: purified recombinant PA83 (Bacillus anthracis, UniProt P13423)
Sequence of purified recombinant PA83 (P13423 30-764 limits assumed): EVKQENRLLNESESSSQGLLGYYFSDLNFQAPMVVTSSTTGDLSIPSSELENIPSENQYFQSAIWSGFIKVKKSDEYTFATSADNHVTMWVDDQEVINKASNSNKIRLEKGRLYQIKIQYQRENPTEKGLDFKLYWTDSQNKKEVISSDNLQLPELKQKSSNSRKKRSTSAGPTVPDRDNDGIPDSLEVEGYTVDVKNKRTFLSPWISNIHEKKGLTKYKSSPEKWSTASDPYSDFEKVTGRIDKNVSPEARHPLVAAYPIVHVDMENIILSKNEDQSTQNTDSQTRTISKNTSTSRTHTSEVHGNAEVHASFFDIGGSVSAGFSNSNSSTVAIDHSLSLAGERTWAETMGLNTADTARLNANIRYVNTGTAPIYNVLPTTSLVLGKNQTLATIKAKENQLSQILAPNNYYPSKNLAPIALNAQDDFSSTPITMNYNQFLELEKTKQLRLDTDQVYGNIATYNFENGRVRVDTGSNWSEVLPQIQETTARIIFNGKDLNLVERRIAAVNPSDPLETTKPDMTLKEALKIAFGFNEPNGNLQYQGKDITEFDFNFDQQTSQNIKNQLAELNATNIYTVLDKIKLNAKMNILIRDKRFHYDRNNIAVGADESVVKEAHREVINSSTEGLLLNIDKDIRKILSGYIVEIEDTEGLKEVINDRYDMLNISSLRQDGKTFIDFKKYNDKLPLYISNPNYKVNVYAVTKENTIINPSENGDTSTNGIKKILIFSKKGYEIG

PA63 [5] = target: T1, PA63; remark: listed apart in the source

Sequence of anthrax lethal toxin (PA83 and LF) (P13423 197-764 limits assumed): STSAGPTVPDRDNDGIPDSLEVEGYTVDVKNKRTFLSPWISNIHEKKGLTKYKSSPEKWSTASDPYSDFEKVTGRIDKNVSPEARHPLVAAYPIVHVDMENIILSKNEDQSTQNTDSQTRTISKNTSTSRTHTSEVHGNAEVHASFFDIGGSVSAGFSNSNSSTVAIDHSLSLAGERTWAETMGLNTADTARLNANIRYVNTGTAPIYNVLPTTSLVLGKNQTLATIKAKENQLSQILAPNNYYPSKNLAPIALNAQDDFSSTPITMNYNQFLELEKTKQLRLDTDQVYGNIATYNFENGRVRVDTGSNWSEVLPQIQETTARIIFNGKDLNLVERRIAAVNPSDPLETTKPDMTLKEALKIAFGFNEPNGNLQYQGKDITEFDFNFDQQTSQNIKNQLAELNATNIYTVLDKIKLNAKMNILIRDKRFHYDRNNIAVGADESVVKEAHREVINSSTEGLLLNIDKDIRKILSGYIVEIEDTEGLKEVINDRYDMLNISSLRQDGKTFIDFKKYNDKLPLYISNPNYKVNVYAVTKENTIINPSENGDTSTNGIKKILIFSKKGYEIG
Sequence of PA63-LF binding (P13423 197-764 limits assumed): as above
T1 sequence (P13423 197-764 limits assumed): as above
Sequence of LF (P15917 34-809 limits assumed): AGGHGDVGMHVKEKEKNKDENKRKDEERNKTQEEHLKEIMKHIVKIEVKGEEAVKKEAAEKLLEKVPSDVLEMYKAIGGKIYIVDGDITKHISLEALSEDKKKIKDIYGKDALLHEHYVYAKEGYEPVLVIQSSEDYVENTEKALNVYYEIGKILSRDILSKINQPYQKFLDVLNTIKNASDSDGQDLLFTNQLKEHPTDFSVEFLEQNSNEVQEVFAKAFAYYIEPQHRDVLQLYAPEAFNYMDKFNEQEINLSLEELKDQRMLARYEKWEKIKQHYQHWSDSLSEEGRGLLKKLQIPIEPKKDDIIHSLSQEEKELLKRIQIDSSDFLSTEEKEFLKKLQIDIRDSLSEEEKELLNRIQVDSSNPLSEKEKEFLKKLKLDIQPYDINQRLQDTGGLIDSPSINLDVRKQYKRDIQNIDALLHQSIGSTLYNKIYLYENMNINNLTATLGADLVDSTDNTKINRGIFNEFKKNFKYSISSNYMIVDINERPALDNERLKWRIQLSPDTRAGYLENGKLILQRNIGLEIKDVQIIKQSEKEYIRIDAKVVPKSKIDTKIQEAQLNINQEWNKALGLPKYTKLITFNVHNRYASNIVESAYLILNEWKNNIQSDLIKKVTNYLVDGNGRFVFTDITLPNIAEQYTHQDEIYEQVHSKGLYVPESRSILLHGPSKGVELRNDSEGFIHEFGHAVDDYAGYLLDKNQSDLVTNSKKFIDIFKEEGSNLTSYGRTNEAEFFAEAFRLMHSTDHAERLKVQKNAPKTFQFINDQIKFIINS

Row | Substance | effective in blocking the interaction of PA with LF (summary statement) (PA63-LF binding) | inhibition of PA63-LF binding in ELISA, substitution of position 2 of MAP 3 (PA63-LF binding) | other results
1 | AVMTYWWLDPPL | Particularly effective |  | inhibition of PA63-LF binding in ELISA, alanine scanning of MAP3 (PA63-LF binding): better efficiency
2 | NAMTYWWLDPPL [MAP3V/A] | Particularly effective |  | inhibition of PA63-LF binding in ELISA, alanine scanning of MAP3 (PA63-LF binding): better efficiency; neutralization of lethal toxin toxicity in rats [1]: completely neutralized toxicity; IC50 for inhibition of PA83/LF-induced cell mortality, compared with MAP3 [2]: one log lower than that of MAP3
3 | NDMTYWWLDPPL | Particularly effective | good efficiency | 
4 | NEMTYWWLDPPL | Particularly effective | good efficiency | 
5 | NGMTYWWLDPPL | Particularly effective | good efficiency | 
6 | NNMTYWWLDPPL | Particularly effective | good efficiency | 
7 | NPMTYWWLDPPL | Particularly effective | good efficiency | 
8 | NQMTYWWLDPPL | Particularly effective | good efficiency | 
9 | NSMTYWWLDPPL | Particularly effective | good efficiency | 
10 | NTMTYWWLDPPL | Particularly effective | good efficiency | 
11 | NVMTYWWLAPPL | Particularly effective |  | inhibition of PA63-LF binding in ELISA, alanine scanning of MAP3 (PA63-LF binding): better efficiency
12 | NVMTYWWLDPPA | Particularly effective |  | inhibition of PA63-LF binding in ELISA, alanine scanning of MAP3 (PA63-LF binding): better efficiency
13 | NVMTYWWLDPPL [MAP3] | Particularly effective |  | binding to LF in ELISA (LF): did not bind; IC50 of inhibition of PA63-LF binding in ELISA, compared with MAP2 (PA63-LF binding): about one log lower than that of MAP2; binding to PA63 in ELISA (PA63 [3]): specifically bound; neutralization of lethal toxin toxicity in rats [1]: completely neutralized toxicity; binding to purified recombinant PA83 in ELISA [4]: did not bind
14 | NVMTYWWLDPPL [p3] |  |  | equilibrium association constant KA of peptide-PA63 binding (PA63 [5]): 3.4e+07 M⁻¹; koff (PA63 [5]): 0.0004 s⁻¹; kon (PA63 [5]): 14000 M⁻¹ s⁻¹
15 | NYMTYWWLDPPL | Particularly effective | good efficiency | 
16 | TLAYWWLTPSNP | Particularly effective |  | 
17 | TLPYWWLTPSNP [MAP2] | Particularly effective |  | binding to LF in ELISA (LF): did not bind; binding to PA63 in ELISA (PA63 [3]): specifically bound; binding to purified recombinant PA83 in ELISA [4]: did not bind
18 | TLPYWWLTPSNP [p2] |  |  | equilibrium association constant KA of peptide-PA63 binding (PA63 [5]): 7.2e+06 M⁻¹; koff (PA63 [5]): 0.0007 s⁻¹; kon (PA63 [5]): 5000 M⁻¹ s⁻¹
19 | YWWLDPP | Particularly effective |  | 
20 | YWWLEPP | Particularly effective |  | 
21 | YWWLHPP | Particularly effective |  | 
22 | YWWLKPP | Particularly effective |  | 
23 | YWWLQPP | Particularly effective |  | 
24 | YWWLTP |  |  | inhibition of PA63-LF binding in ELISA, shortening of MAP2 and re-elongation of YWWLTP (PA63-LF binding): minimal sequence able to inhibit PA-LF binding
25 | YWWLTPP | Particularly effective |  | inhibition of PA63-LF binding in ELISA, shortening of MAP2 and re-elongation of YWWLTP (PA63-LF binding): superior inhibitory efficiency
26 | YWWLTPPA | Particularly effective |  | inhibition of PA63-LF binding in ELISA, shortening of MAP2 and re-elongation of YWWLTP (PA63-LF binding): even better efficiency
27 | YWWLTPPP [8mer peptide YWWLTPPP] |  |  | KA fold higher than that of lead 12mer p2 (PA63 [5]): about 10 fold; equilibrium association constant KA of peptide-PA63 binding (PA63 [5]): 6.8e+07 M⁻¹; koff (PA63 [5]): 0.0013 s⁻¹; kon (PA63 [5]): 88000 M⁻¹ s⁻¹
28 | YWWLTPPP [MAP YWWLTPPP] | Particularly effective |  | inhibition of PA63-LF binding in ELISA, shortening of MAP2 and re-elongation of YWWLTP (PA63-LF binding): even better efficiency; neutralization of lethal toxin toxicity in rats [1]: completely neutralized toxicity
29 | YWWLTPPQ | Particularly effective |  | inhibition of PA63-LF binding in ELISA, shortening of MAP2 and re-elongation of YWWLTP (PA63-LF binding): even better efficiency
